Test results as given in patent publication US20130203598A1, “USE OF PHOTOSYNTHETIC PIGMENT STABILIZING AGENTS TO REGULATE RIPENING AND QUALITY IN FRUITS AND VEGETABLES” (WASHINGTON STATE UNIVERSITY, priority 2011, published 2013).

Columns and labels:
[1] = tested on: d'Anjou pears; experiment: Fruit firmness (pressure) of d'Anjou pears treated on trees before harvest, after commercial controlled atmosphere storage; format: in vivo, d'Anjou pear (Pyrus communis)
Method: FIG. 1. Fruit pressure of Bluestim™ (glycine betaine)-treated and untreated d'Anjou pears. D'Anjou pears were treated on trees with Bluestim™ concentrations of 0, 2.5, 5, and 10 lbs/acre on Aug. 17, 2010. Pears were harvested on 9/20/2010 and stored in commercial controlled atmosphere (CA) facilities. Pears were removed from storage on Jan. 7, 2011.
FIG. 3. Fruit pressure of Bluestim™ (glycine betaine)-treated and untreated d'Anjou pears. D'Anjou pears were treated on trees with Bluestim™ concentrations of 0 and 7.5 lbs/acre before harvest. Pears were harvested during the fall and stored in commercial controlled atmosphere (CA) facilities. Pears were removed from storage approximately 3 months later. Fruit firmness and % Brix were measured approximately 1 month after removal from storage.
In addition, the degree of firmness and/or lack thereof may be used as an indicator of ripeness. Fruit firmness is generally measured as kg/cm^−2 and suitable ranges of firmness values for unripened and ripe fruit and vegetables are well-known to those of skill in the art. Firmness may be measured using a variety of instruments such as various fruit firmness testers, force gauges, etc.

[2] = use on comestible substances, consumption by humans or other animals; cited from earlier work
[3] = tested on: d'Anjou pears; experiment: Soluble sugars (% Brix) of d'Anjou pears treated on trees before harvest, after commercial controlled atmosphere storage; format: in vivo, d'Anjou pear (Pyrus communis); settings: application before harvest, after CA storage (FIGS. 2 and 3)
Method: FIG. 2. Percent Brix of Bluestim™-treated pears after CA storage. Percent Brix were measured for all pear treatments after they were removed from the commercial CA storage conditions. FIG. 3. Fruit pressure of Bluestim™ (glycine betaine)-treated and untreated d'Anjou pears. D'Anjou pears were treated on trees with Bluestim™ concentrations of 0 and 7.5 lbs/acre before harvest. Pears were harvested during the fall and stored in commercial controlled atmosphere (CA) facilities. Pears were removed from storage approximately 3 months later. Fruit firmness and % Brix were measured approximately 1 month after removal from storage. In one embodiment, the methods of the invention are carried out before a fruit is “ripe”, i.e. before the fruit has a soluble solids content or “SSC” (which generally corresponds to sugar content) that is generally recognized in the art as suitable for a fruit of interest. […] Percent sugar content is typically measured, for example, in degrees Brix (symbol °Bx) which is the sugar content of an aqueous solution. […] Those of skill in the art will recognize that typical Brix values for fruit and vegetables to which glycine betaine is applied as described herein will vary widely depending on the type of fruit or vegetable, and will be able to readily able to determine suitable values. […]

With `C[N+](C)(C)CC(=O)O` [glycine betaine, N,N,N-trimethylglycine] the “fruit firmness compared to untreated pears” value ([1]; application before harvest, 2.5, 5, 10 or 7.5 lbs/acre, same post-harvest storage conditions (FIGS. 1 and 3)) was “firmer pears compared to untreated pears”, the “fruit firmness, dose dependence” value ([1]; application before harvest, 10 lbs/acre is the highest dose) was “increased the fruit firmness in a dose dependent manner, with applications of 10 lbs/acre yielding the firmest pears” and the “reversibility of the effect on firmness and % BRIX as time passes” value ([1]; treated pears as time passes after treatment) was “soften and exhibit increases in % BRIX, indicating that the effect is temporary”. For the same molecule, the toxicity [2] was “non-toxic” and the “soluble sugars measured in % BRIX” value [3] was “decrease in soluble sugars measured in % BRIX in a dose dependent manner”.
